Molecular target: T1, human F508del CFTR (Homo sapiens, UniProt P13569, DEL508-508)
T1 construct: expressed in transfected cells; host or cells: Fisher Rat Thyroid (FRT) cells
Assay: CFTR-YFP High Throughput Assay
Assay type: cell-based
Conditions: FRT cells expressing human F508del CFTR and YFP; for Emax: EMax normalized to the positive control, read-out: % Efficacy
Summary of the method: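 Corrector mode: 24-26 h compound exposure (2 nM-40 μM, 37° C) of FRT cells carrying human F508del CFTR and YFP-H148Q/I152L, followed by washing and 60-120 min RT stimulation with 20 μM forskolin and 30 μM P3. CFTR activity is the least-squares-fitted rate of YFP quenching (Ex 500/Em 540 nm) after iodide addition.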

T1 sequence (P13569 with tags, fused parts or gaps DEL508-508): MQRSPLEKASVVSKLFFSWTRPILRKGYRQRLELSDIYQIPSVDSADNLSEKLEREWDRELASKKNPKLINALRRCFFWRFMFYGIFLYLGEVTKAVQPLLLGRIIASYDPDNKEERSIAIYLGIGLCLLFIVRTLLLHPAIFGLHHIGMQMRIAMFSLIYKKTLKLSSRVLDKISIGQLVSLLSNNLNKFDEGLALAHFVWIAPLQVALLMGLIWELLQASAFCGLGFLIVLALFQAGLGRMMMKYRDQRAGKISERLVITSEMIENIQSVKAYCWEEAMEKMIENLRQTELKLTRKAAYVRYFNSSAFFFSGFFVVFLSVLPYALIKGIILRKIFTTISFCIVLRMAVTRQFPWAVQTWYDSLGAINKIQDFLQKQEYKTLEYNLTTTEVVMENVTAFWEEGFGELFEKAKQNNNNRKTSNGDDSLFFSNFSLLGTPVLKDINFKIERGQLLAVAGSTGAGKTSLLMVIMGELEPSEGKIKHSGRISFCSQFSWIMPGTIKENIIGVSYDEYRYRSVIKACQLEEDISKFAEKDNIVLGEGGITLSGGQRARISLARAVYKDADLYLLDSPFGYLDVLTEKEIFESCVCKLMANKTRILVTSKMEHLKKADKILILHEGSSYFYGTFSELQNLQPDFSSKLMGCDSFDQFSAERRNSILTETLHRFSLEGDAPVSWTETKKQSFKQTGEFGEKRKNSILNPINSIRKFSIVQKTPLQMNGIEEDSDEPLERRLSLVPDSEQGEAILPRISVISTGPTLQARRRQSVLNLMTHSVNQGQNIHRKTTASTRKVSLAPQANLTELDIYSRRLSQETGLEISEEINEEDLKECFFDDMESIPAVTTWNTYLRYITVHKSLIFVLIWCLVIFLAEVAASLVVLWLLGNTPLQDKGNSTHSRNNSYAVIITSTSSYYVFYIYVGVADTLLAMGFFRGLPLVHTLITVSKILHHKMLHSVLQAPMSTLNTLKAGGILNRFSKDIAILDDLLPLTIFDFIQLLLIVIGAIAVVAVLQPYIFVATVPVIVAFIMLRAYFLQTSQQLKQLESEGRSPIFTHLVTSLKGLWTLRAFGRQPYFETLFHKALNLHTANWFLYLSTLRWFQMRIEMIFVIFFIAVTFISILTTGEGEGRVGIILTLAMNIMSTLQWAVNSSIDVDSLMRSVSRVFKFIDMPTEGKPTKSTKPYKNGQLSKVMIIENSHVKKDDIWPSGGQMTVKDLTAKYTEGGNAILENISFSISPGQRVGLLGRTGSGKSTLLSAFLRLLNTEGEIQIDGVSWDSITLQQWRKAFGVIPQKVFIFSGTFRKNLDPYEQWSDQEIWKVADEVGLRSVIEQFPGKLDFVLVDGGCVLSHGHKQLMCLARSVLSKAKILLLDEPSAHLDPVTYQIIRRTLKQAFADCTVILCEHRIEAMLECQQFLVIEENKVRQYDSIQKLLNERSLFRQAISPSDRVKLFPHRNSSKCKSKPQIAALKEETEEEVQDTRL

SMILES	Emax [%]	EC50 [µM]
CCN(C(=O)c1nn(C2CCN(C)CC2)c(=O)c2c1c1ccccc1n2C)c1ccccc1 [Example 199, N-ethyl-5-methyl-3-(1-methylpiperidin-4-yl)-4-oxo-N-phenyl-4,5-dihydro-3H-pyridazino[4,5-b]indole-1-carboxamide]	10 to 30	> 20
CC(C)N(C(=O)c1nn(Cc2ccccc2)c(=O)c2c1c1ccccc1n2C)c1ccccc1 [Example 212, 3-benzyl-N-isopropyl-5-methyl-4-oxo-N-phenyl-4,5-dihydro-3H-pyridazino[4,5-b]indole-1-carboxamide]	30 to 80	< 10
CCN(C(=O)c1nn(CCOC)c(=O)c2c1c1ccccc1n2C)c1ccccc1 [Example 227, N-ethyl-3-(2-methoxyethyl)-5-methyl-4-oxo-N-phenyl-4,5-dihydro-3H-pyridazino[4,5-b]indole-1-carboxamide]	30 to 80	< 10
CCN(C(=O)Cn1ncc2c(c1=O)c1ccccc1n2Cc1cccc(OC)c1)c1ccc2c(c1)OC(F)(F)O2 [Example 135, N-(2,2-difluorobenzo[d][1,3]dioxol-5-yl)-N-ethyl-2-(5-(3-methoxybenzyl)-1-oxo-1H-pyridazino[4,5-b]indol-2(5H)-yl)acetamide]	30 to 80	< 10
CCN(C(=O)c1nn(-c2nccs2)c(=O)c2c1c1ccccc1n2C)c1ccccc1 [Example 170, N-ethyl-5-methyl-4-oxo-N-phenyl-3-(thiazol-2-yl)-4,5-dihydro-3H-pyridazino[4,5-b]indole-1-carboxamide]	30 to 80	
CCN(C(=O)Cn1ncc2c(c1=O)c1ccccc1n2Cc1ccc(C#N)c(F)c1)c1ccc2c(c1)OC(F)(F)O2 [Example 145, 2-(5-(4-cyano-3-fluorobenzyl)-1-oxo-1H-pyridazino[4,5-b]indol-2(5H)-yl)-N-(2,2-difluorobenzo[d][1,3]dioxol-5-yl)-N-ethylacetamide]	30 to 80	< 10
Cn1c2ccccc2c2c(-c3ccccc3)nn(-c3ccccc3)c(=O)c21 [Example 235]	10 to 30	> 20
CCc1ccc(N(CC)C(=O)Cn2nc(-c3ccc(O)cc3)c3ccccc3c2=O)cc1 [Example 2, N-ethyl-N-(4-ethylphenyl)-2-(4-(4-hydroxyphenyl)-1-oxophthalazin-2(1H)-yl)acetamide]	10 to 30	
CCN(C(=O)Cn1ncc2c(c1=O)c1ccccc1n2Cc1ccc(C#N)cc1F)c1ccc2c(c1)OC(F)(F)O2 [Example 146, 2-(5-(4-cyano-2-fluorobenzyl)-1-oxo-1H-pyridazino[4,5-b]indol-2(5H)-yl)-N-(2,2-difluorobenzo[d][1,3]dioxol-5-yl)-N-ethylacetamide]	30 to 80	< 10
CCN(C(=O)c1nn(-c2ccccc2)c(=O)c2c1c1ccccc1n2C)c1ccncn1 [Example 151, N-ethyl-5-methyl-4-oxo-3-phenyl-N-(pyrimidin-4-yl)-4,5-dihydro-3H-pyridazino[4,5-b]indole-1-carboxamide]	30 to 80	
Cc1nc2ccc(N(C)C(=O)Cn3ncc4c(c3=O)c3ccccc3n4Cc3ccc(F)cc3)cc2o1 [Example 148, 2-(5-(4-fluorobenzyl)-1-oxo-1,5-dihydro-2H-pyridazino[4,5-b]indol-2-yl)-N-methyl-N-(2-methylbenzo[d]oxazol-6-yl)acetamide]	30 to 80	< 10
CC(C)N(C(=O)c1nn(-c2ccccn2)c(=O)c2c1c1ccccc1n2C)c1ccccc1 [Example 186, N-isopropyl-5-methyl-4-oxo-N-phenyl-3-(pyridin-2-yl)-4,5-dihydro-3H-pyridazino[4,5-b]indole-1-carboxamide]	10 to 30	< 10
[2H]C([2H])([2H])N(C(=O)Cn1nc(-c2cccc(C#N)c2)c2ccc(OC)cc2c1=O)c1ccc2nc(C)oc2c1 [Example 86, 2-(4-(3-cyanophenyl)-7-methoxy-1-oxophthalazin-2(1H)-yl)-N-(methyl-d3)-N-(2-methylbenzo[d]oxazol-6-yl)acetamide]	> 80	< 10
CCN(C(=O)Cn1nc(Cc2cccnc2)c2ccc(Cl)cc2c1=O)c1ccc2c(c1)OC(F)(F)O2 [Example 54, 2-(7-chloro-1-oxo-4-(pyridin-3-ylmethyl)phthalazin-2(1H)-yl)-N-(2,2-difluorobenzo[d][1,3]dioxol-5-yl)-N-ethylacetamide]	30 to 80	
CC(C)n1nc(C(=O)N2CCCCC2)c2c3ccccc3n(C)c2c1=O [Example 208, 3-isopropyl-5-methyl-1-(piperidine-1-carbonyl)-3,5-dihydro-4H-pyridazino[4,5-b]indol-4-one]	10 to 30	< 10
CCc1ccc(N(CC)C(=O)Cn2nc(-c3cccc(C(N)=O)c3)c3ccccc3c2=O)cc1 [Example 11, 3-(3-(2-(ethyl(4-ethylphenyl)amino)-2-oxoethyl)-4-oxo-3,4-dihydrophthalazin-1-yl)benzamide]	30 to 80	10 to 20

SMILES	Emax [%]	EC50 [µM]
CCN(C(=O)c1nn(-c2cnc3ccccc3c2)c(=O)c2c1c1ccccc1n2C)c1ccccc1 [Example 177, N-ethyl-5-methyl-4-oxo-N-phenyl-3-(quinolin-3-yl)-4,5-dihydro-3H-pyridazino[4,5-b]indole-1-carboxamide]	30 to 80	
CCN(C(=O)Cn1nc(Cc2cccnc2)c2c3ccccc3n(C)c2c1=O)c1ccc2c(c1)OC(F)(F)O2 [Example 238, N-(2,2-difluorobenzo[d][1, 3]dioxol-5-yl)-N-ethyl-2-(5-methyl-4-oxo-1-(pyridin-3-ylmethyl)-4,5-dihydro-3H-pyridazino[4,5-b]indol-3-yl)acetamide]	30 to 80	< 10
CCN(C(=O)Cn1ncc2c(c1=O)c1ccccc1n2Cc1ccc(C#N)cc1)c1ccc2c(c1)OC(F)(F)O2 [Example 144, 2-(5-(4-cyanobenzyl)-1-oxo-1H-pyridazino[4,5-b]indol-2(5H)-yl)-N-(2-2-difluorobenzo[d][1,3]dioxol-5-yl)-N-ethylacetamide]	> 80	10 to 20
CCN(CC)C(=O)c1nn(CC(O)COCc2ccccc2)c(=O)c2c1c1c(Cl)cccc1n2C (stereo not drawn) [Example 233, 3-(3-(benzyloxy)-2-hydroxypropyl)-9-chloro-N,N-diethyl-5-methyl-4-oxo-4,5-dihydro-3H-pyridazino[4,5-b]indole-1-carboxamide]	30 to 80	< 10
CCN(C(=O)Cn1ncc2c(c1=O)c1ccccc1n2Cc1ccccc1C#N)c1ccc2c(c1)OC(F)(F)O2 [Example 141, 2-(5-(2-cyanobenzyl)-1-oxo-1H-pyridazino[4,5-b]indol-2(5H)-yl)-N-(2,2-difluorobenzo[d][1,3]dioxol-5-yl)-N-ethylacetamide]	30 to 80	
CCN(C(=O)Cn1nc(-c2cccnc2)c2ccccc2c1=O)c1ccc2c(c1)OC(F)(F)O2 [Example 24, N-(2,2-difluorobenzo[d][1, 3]dioxol-5-yl)-N-ethyl-2-(1-oxo-4-(pyridin-3-yl)phthalazin-2(1H)-yl)acetamide]	30 to 80	< 10
CCc1ccc(N(CC)C(=O)Cn2nc(Cc3cccnc3)c3cccc(F)c3c2=O)cc1 [Example 37, N-ethyl-N-(4-ethylphenyl)-2-(8-fluoro-1-oxo-4-(pyridin-3-ylmethyl)phthalazin-2(1H)-yl)acetamide]	30 to 80	
CCN(C(=O)Cn1nc(-c2cccc(C#N)c2)c2ccc(O)cc2c1=O)c1ccc2c(c1)OC(F)(F)O2 [Example 103, 2-(4-(3-cyanophenyl)-7-hydroxy-1-oxophthalazin-2(1H)-yl)-N-(2,2-difluorobenzo[d][1,3]dioxol-5-yl)-N-ethylacetamide]	> 80	< 10
Cc1ccc(-n2nc(C(=O)N3CCN(Cc4ccccc4)CC3)c3c4ccccc4n(C)c3c2=O)cc1 [Example 161, 1-(4-benzylpiperazine-1-carbonyl)-5-methyl-3-(p-tolyl)-3H-pyridazino[4,5-b]indol-4(5H)-one]	30 to 80	
Cc1ccc(-n2nc(C(=O)N3CCCCC3)c3c4ccccc4n(C)c3c2=O)cc1 [Example 150, 5-methyl-1-(piperidine-1-carbonyl)-3-p-tolyl-3H-pyridazino [4,5-b]indol-4(5H)-one]	30 to 80	
CCN(C(=O)Cn1ncc2c(c1=O)c1ccccc1n2CCC#N)c1ccc2c(c1)OC(F)(F)O2 [Example 138, 2-(5-(2-cyanoethyl)-1-oxo-1H-pyridazino[4,5-b]indol-2(5H)-yl)-N-(2,2-difluorobenzo[d][1,3]dioxol-5-yl)-N-ethylacetamide]	10 to 30	> 20
CCOC(=O)c1ccc2c(-c3cccc(F)c3)nn(CC(=O)N(C)c3ccc4nc(C)oc4c3)c(=O)c2c1 [Example 67, ethyl 1-(3-fluorophenyl)-3-(2-(methyl(2-methyl-benzo[d]oxazol-6-yl)amino)-2-oxoethyl)-4-oxo-3,4-dihydrophthalazine-6-carboxylate]	30 to 80	< 10
CCN(C(=O)Cn1nc(C(=O)N(CC)c2cccc(Cl)c2)c2c3ccccc3n(C)c2c1=O)c1ccc2c(c1)OC(F)(F)O2 [Example 202, N-(3-chlorophenyl)-3-(2-((2,2-difluorobenzo[d][1,3]dioxol-5-yl)(ethyl)amino)-2-oxoethyl)-N-ethyl-5-methyl-4-oxo-4,5-dihydro-3H-pyridazino[4,5-b]indole-1-carboxamide]	30 to 80	
CCc1ccc(N(CC)C(=O)Cn2nc(-c3ccncc3)c3ccccc3c2=O)cc1 [Example 4, N-ethyl-N-(4-ethylphenyl)-2-(1-oxo-4-(pyridin-4-yl)phthalazin-2(1H)-yl)acetamide]	30 to 80	
CCOC(=O)c1ccc2c(-c3cccc(Cl)c3)nn(CC(=O)N(C)c3ccc4nc(C)oc4c3)c(=O)c2c1 [Example 65, ethyl 1-(3-chlorophenyl)-3-(2-(methyl(2-methylbenzo[d]oxazol-6-yl)amino)-2-oxoethyl)-4-oxo-3,4-dihydrophthalazine-6-carboxylate]	> 80	< 10

Reference: patent publication US10370366B2 (Flatley Discovery Lab, LLC, priority 2013, dated 2019)
